Reference: patent US12466839B2, “Allosteric AKT inhibitors for use in the treatment of Hereditary Hemorrhagic Telangiectasia” (VADERIS THERAPEUTICS AG, priority 2020, dated 2025)

Tests used:
AKT2 = AKT2 (Homo sapiens, UniProt P31751); experiment: Panel of 450 kinases; type: biochemical
Cav1.2 = Cav1.2 (Homo sapiens, UniProt Q13936); experiment: Cardiac ion channel profile; type: cell-based
Kv4.3 = Kv4.3 (Homo sapiens, UniProt Q9UK17); experiment: Cardiac ion channel profile; type: cell-based
Kir2.1 = Kir2.1 (Homo sapiens, UniProt P63252); experiment: Cardiac ion channel profile; type: cell-based
[1] = system: angiogenesis in C57Bl/6J mice retinas; experiment: Neonatal retinal angiogenesis model in wild-type mice; type: in vivo, mouse (C57Bl/6J); conditions: 2.5 mg·kg−1
Excerpt: For the retinal vascular network, quantification of the number of AV shunts per mouse was done manually. […] A custom own-lab made macro allowed automatic processing of the images, using the same processing and quantification parameters. Briefly, the brightness of the images was enhanced by modifying the pixel extreme values, which depends on the specific image histogram content. A Gaussian filter was applied to reduce the intensity in homogeneities. The filter order depended on the image resolution. Next, the threshold step was computed, based on a global threshold technique such as Otsu's method or Li's method, resulting in binary image. A median filter was then applied to eliminate potential local irregularities, which could cause false branching point detection. From the binary images, the vascular density was quantified (calculated as the ratio of pixels associated with the vessels divided by the total number of pixels in the image). For the other parameters, a skeleton of the images was first computed using ImageJ, then the total vascular length was quantified using the Measure Skeleton Length plug-in from ImageJ. The number of branch points was extracted from the Analyze Skeleton plug-in of ImageJ. All results were transferred to Microsoft Office Excel software and automatically rearranged using a lab custom-made program. As all images generated at each step of the processing were saved, a visual control was made to ensure that there were no aberrant results.
Statistical analysis was performed with Prism 7 software (GraphPad). For most of the experiments, 1-way ANOVA was used for multiple comparisons. Results are expressed as mean±SEM. For post hoc pairwise, the Dunnett's test was used. A value of *P<0.05, **P<0.01, ***P<0.001 or ****P<0.0001 denotes statistical significance. An in-group variation of around 15% in parameters related to blood vessel architecture changes has been previously observed by the inventors, therefore a difference between controls and mutant mice of around 20-30% was anticipated. It was therefore expected that a group of 8 mice per condition would reveal statistical differences.
Eyes were fixed in 4% paraformaldehyde (PFA) in PBS at room temperature for 10 min, retinas were dissected, post-fixed in 4% PFA in PBS at 4° C. overnight then processed for immunostaining. Retinas were permeabilized in PBS, 1% BSA and 0.5% Triton X-100 at 4° C. overnight, rinsed in PBS, washed twice in PBlec (PBS, pH 6.8, 1% Triton-X-100, 0.1 mM CaCl2, 0.1 mM MgCl2, 0.1 mM MnCl2), and then incubated in biotinylated Griffonia simplicifolia lectin (isolectin B4) (B-1205, Vector Laboratories, 1:50) in PBlec at 4° C. overnight. After 5 washes in PBS, samples were incubated with streptavidin Cy-3 (PA43001, Sigma-Aldrich, 1:100) and with a-SMA (clone 1A4) (F3777, Sigma-Aldrich) conjugated with FITC diluted in PBS, 0.5% BSA, and 0.25% X-100 at 4° C. for 2 h. After washing, flat whole-mount retinas were mounted in DAKO medium (S3023, Dako). Complete high-resolution 3-dimensional rendering of whole-mount retinas was acquired using Laser Scanning Microscope SP5 or SP8 (Leica).

ADRA2A = target: T1, ADRA2A (Homo sapiens, UniProt P08913); experiment: Millipore Drug Discovery Safety and Liability Panel; type: cell-based
T1 construct: purchased Millipore

CXCR1 = target: T2, CXCR1 (Homo sapiens, UniProt P25024); experiment: as above; type: cell-based
T2 construct: purchased Millipore
T2 sequence (P25024 whole entry): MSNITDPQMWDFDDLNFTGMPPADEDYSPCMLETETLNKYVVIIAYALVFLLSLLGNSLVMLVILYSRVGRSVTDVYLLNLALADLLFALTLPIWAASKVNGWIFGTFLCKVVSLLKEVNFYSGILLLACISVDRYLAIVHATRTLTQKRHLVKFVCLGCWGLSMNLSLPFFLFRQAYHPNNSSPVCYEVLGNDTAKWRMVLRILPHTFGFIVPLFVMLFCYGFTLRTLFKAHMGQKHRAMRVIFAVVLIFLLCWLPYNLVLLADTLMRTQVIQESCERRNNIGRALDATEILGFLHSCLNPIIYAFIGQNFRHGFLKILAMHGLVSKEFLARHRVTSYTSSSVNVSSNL

CysLT1 = target: T3, CysLT1 (Homo sapiens, UniProt Q9Y271); experiment: as above; type: cell-based
T3 construct: purchased Millipore
T3 sequence (Q9Y271 whole entry): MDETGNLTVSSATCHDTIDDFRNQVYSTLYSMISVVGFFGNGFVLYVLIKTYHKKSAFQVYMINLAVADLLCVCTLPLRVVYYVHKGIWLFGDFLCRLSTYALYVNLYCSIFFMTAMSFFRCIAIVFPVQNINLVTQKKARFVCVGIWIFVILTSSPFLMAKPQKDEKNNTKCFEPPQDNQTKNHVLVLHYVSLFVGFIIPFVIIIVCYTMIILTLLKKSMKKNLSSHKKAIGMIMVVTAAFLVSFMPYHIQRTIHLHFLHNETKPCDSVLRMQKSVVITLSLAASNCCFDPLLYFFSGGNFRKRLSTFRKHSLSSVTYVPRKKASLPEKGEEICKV

D1 = target: T4, D1 (Homo sapiens, UniProt P21728); experiment: as above; type: cell-based
T4 construct: purchased Millipore
T4 sequence (P21728 whole entry): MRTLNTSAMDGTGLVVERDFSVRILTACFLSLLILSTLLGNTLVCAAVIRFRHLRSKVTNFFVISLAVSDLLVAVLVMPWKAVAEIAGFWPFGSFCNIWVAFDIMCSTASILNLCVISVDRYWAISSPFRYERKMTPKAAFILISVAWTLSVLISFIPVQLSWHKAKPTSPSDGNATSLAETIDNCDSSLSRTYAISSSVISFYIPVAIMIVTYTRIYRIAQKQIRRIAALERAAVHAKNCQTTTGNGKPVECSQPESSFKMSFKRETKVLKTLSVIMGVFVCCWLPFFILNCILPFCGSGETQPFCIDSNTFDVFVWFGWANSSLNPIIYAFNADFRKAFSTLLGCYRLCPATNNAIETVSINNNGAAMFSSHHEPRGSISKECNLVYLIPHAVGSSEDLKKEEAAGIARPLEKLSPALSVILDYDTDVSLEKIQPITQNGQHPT

EP3 = target: T5, EP3 (Homo sapiens, UniProt P43115); experiment: as above; type: cell-based
T5 construct: purchased Millipore
T5 sequence (P43115 whole entry): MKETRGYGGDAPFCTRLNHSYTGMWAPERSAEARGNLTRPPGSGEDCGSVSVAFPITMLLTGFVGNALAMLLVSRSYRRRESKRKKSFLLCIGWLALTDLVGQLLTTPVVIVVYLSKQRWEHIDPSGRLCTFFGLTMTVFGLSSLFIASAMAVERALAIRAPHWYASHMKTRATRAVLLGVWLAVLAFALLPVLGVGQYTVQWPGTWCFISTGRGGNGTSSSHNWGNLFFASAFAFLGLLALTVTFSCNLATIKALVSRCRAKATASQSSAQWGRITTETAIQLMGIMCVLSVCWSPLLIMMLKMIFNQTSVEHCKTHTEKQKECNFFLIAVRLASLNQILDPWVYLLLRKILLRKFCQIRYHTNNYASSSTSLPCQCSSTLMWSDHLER

GnRH = target: T6, GnRH (Homo sapiens, UniProt P30968); experiment: as above; type: cell-based
T6 construct: purchased Millipore
T6 sequence (P30968 whole entry): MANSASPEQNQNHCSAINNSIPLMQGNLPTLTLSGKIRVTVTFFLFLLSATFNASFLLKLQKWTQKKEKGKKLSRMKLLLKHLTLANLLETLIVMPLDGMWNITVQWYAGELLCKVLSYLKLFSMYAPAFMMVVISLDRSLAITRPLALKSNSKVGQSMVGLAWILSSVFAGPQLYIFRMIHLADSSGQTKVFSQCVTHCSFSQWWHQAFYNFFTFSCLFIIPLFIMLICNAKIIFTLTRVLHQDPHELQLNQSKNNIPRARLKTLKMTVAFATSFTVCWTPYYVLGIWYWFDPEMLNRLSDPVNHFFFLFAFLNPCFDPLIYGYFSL

IP1 = target: T7, IP1 (Homo sapiens, UniProt P43119); experiment: as above; type: cell-based
T7 construct: purchased Millipore
T7 sequence (P43119 whole entry): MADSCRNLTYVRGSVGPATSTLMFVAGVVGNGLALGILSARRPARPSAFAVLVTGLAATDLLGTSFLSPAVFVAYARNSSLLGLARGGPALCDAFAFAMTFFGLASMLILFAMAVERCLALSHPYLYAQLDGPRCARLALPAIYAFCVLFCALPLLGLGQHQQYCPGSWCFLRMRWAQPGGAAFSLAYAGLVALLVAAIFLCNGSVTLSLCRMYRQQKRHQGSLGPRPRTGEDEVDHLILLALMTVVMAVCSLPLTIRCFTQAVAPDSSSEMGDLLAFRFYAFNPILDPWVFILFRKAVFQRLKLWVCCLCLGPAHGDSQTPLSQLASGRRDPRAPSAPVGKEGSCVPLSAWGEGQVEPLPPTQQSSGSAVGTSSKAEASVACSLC

LPA1 = target: T8, LPA1 (Homo sapiens, UniProt Q92633); experiment: as above; type: cell-based
T8 construct: purchased Millipore
T8 sequence (Q92633 whole entry, species assumed): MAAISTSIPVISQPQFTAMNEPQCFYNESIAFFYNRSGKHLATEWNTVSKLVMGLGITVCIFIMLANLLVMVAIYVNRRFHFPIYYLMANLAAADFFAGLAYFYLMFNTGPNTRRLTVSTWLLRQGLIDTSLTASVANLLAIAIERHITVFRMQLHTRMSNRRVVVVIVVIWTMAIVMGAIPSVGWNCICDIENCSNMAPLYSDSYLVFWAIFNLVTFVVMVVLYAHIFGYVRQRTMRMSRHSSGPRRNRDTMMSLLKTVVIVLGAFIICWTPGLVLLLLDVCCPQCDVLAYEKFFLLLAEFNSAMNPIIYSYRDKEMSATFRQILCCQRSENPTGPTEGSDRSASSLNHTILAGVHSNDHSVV

NK1 = target: T9, NK1 (Homo sapiens, UniProt P25103); experiment: as above; type: cell-based
T9 construct: purchased Millipore
T9 sequence (P25103 whole entry): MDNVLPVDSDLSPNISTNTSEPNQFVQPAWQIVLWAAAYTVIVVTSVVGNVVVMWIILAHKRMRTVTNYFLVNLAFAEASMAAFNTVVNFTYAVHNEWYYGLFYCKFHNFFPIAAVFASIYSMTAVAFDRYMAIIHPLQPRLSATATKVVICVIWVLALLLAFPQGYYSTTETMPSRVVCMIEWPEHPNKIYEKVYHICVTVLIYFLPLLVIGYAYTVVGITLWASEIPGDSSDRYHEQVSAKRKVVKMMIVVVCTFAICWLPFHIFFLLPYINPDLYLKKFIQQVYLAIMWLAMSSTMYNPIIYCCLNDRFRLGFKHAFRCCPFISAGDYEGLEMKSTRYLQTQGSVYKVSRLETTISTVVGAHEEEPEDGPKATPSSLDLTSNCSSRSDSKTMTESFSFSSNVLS

NK3 = target: T10, NK3 (Homo sapiens, UniProt P29371); experiment: as above; type: cell-based
T10 construct: purchased Millipore
T10 sequence (P29371 whole entry): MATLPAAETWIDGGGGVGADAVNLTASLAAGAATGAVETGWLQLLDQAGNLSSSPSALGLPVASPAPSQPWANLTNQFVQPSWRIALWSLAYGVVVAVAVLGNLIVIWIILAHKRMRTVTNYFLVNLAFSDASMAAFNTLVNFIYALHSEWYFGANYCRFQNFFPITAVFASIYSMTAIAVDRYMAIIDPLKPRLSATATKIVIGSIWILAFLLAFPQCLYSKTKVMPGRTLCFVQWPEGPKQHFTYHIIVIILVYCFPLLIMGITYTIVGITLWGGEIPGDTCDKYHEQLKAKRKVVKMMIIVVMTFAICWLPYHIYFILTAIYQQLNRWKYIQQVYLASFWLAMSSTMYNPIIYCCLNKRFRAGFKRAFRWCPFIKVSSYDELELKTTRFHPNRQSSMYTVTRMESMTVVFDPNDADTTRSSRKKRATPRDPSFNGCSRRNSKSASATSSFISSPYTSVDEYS

PAF = target: T11, PAF (Homo sapiens, UniProt P25105); experiment: as above; type: cell-based
T11 construct: Millipore
T11 sequence (P25105 whole entry): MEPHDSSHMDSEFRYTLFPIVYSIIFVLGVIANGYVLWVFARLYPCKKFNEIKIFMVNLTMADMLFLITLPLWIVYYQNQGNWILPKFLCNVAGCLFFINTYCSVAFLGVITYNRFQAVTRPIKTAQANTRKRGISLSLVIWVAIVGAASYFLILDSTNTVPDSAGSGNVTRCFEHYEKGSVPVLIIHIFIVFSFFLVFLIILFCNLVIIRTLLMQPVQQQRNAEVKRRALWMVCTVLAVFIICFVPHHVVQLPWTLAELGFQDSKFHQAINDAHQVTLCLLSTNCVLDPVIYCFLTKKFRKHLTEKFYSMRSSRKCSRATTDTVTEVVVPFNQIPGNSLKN

S1P3 = target: T12, S1P3 (Homo sapiens, UniProt Q99500); experiment: as above; type: cell-based
T12 construct: Millipore
T12 sequence (Q99500 whole entry, species assumed): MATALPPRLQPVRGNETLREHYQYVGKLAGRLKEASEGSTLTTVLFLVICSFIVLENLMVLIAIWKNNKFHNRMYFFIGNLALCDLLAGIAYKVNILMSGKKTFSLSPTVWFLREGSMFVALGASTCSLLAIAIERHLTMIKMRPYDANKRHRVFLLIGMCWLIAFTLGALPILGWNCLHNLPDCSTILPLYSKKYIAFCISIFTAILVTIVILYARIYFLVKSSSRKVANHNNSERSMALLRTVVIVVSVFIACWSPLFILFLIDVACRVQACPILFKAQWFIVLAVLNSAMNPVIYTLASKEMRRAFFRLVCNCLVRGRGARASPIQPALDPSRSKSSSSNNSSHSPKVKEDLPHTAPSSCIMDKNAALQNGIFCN

SST4 = target: T13, SST4 (Homo sapiens, UniProt P31391); experiment: as above; type: cell-based
T13 construct: Millipore
T13 sequence (P31391 whole entry, species assumed): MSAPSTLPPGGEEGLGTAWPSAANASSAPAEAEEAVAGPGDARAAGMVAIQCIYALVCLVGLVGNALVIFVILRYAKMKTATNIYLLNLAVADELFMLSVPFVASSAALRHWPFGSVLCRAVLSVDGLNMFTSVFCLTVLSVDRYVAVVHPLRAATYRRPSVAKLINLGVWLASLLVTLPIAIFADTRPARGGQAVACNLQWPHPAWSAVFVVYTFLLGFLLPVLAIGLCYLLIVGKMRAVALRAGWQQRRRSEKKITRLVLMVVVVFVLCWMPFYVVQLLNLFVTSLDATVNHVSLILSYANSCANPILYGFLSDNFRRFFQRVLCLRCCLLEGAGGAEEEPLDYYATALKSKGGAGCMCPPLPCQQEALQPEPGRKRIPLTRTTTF

[2] = read-out: ANTAGONIST mean % inhibition
[3] = read-out: AGONIST mean % increase in activity

CCN1C(=O)COc2nc(-c3ccc(C4(N)CC(O)C4)cc3)c(-c3ccccc3)cc21.O=C(O)C(O)C(O)C(=O)O [VAD044, 6-(4-(1-amino-3-hydroxycyclobutyl)phenyl)-1-ethyl-7-phenyl-1H-pyrido[2,3-b][1,4]oxazin-2(3H)-one L-tartrate]
inhibition at 10 µM (AKT2): 95% | inhibition at 10 µM (Cav1.2): < 25% | inhibition at 10 µM (Kv4.3): < 25% | inhibition at 10 µM (Kir2.1): < 25% | impact on normal angiogenesis [1]: little or no impact on normal angiogenesis | activation at 10 µM (ADRA2A; ADRA2A, 10 μM, read-out: AGONIST mean % increase in activity): -0.2% | inhibition at 10 µM (ADRA2A; [2]): 11.8% | activation at 10 µM (CXCR1; CXCR1, 10 μM, read-out: AGONIST mean % increase in activity): -0.3% | inhibition at 10 µM (CXCR1; [2]): 3.7% | activation at 10 µM (CysLT1; CysLT1, 10 μM, read-out: AGONIST mean % increase in activity): -0.8% | inhibition at 10 µM (CysLT1; [2]): 1.5% | activation at 10 µM (D1; D1, 10 μM, read-out: AGONIST mean % increase in activity): 1.5% | inhibition at 10 µM (D1; [2]): 18.7% | activation at 10 µM (EP3; EP3, 10 μM, read-out: AGONIST mean % increase in activity): -0.1% | inhibition at 10 µM (EP3; [2]): 9.2% | activation at 10 µM (GnRH; GnRH, 10 μM, read-out: AGONIST mean % increase in activity): -0.6% | inhibition at 10 µM (GnRH; [2]): 4% | activation at 10 µM (IP1; IP1, 10 μM, read-out: AGONIST mean % increase in activity): 1.1% | inhibition at 10 µM (IP1; [2]): -2.6% | activation at 10 µM (LPA1; [3]): -1.3% | inhibition at 10 µM (LPA1; [2]): 57.4% | activation at 10 µM (NK1; NK1, 10 μM, read-out: AGONIST mean % increase in activity): -1.4% | inhibition at 10 µM (NK1; [2]): 2.4% | activation at 10 µM (NK3; NK3, 10 μM, read-out: AGONIST mean % increase in activity): -0.4% | inhibition at 10 µM (NK3; [2]): 16.9% | activation at 10 µM (PAF; [3]): -0.9% | inhibition at 10 µM (PAF; [2]): 21% | activation at 10 µM (S1P3; S1P3, 10 μM, read-out: AGONIST mean % increase in activity): -0.4% | inhibition at 10 µM (S1P3; [2]): -0.6% | activation at 10 µM (SST4; SST4, 10 μM, read-out: AGONIST mean % increase in activity): -0.8% | inhibition at 10 µM (SST4; [2]): 16.5%
